From PubChem BioAssay (NCI)
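96-well plates; 48 h exposure; 5 concentrations. Endpoints by linear interpolation between flanking doses. Not reached: highest tested concentration assigned. GI50 marks 50% less growth. TGI denotes the concentration required for complete inhibition of growth.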

Key:
Experiment in all cases: NCI-60 cell line screen, 48 h
[1] = system: 786-0 renal
[2] = system: A498 renal
[3] = system: A549 NSCLC
[4] = system: ACHN renal
[5] = system: BT-549 breast
[6] = system: CAKI-1 renal
[7] = system: CCRF-CEM leukemia
[8] = system: COLO 205 colon
[9] = system: DU-145 prostate
[10] = system: EKVX NSCLC
[11] = system: HCC-2998 colon
[12] = system: HCT-116 colon
[13] = system: HCT-15 colon
[14] = system: HL-60(TB) leukemia
[15] = system: HOP-62 NSCLC
[16] = system: HOP-92 NSCLC
[17] = system: HS 578T breast
[18] = system: HT29 colon
[19] = system: IGROV1 ovarian
[20] = system: K-562 leukemia
[21] = system: KM12 colon
[22] = system: LOX IMVI melanoma
[23] = system: M14 melanoma
[24] = system: MCF7 breast
[25] = system: MDA-MB-231 breast
[26] = system: MDA-MB-435
[27] = system: MOLT-4 leukemia
[28] = system: NCI-H226 lung
[29] = system: NCI-H23 lung
[30] = system: NCI-H460 lung
[31] = system: NCI/ADR-RES ovarian
[32] = system: OVCAR-3 ovarian
[33] = system: OVCAR-4 ovarian
[34] = system: OVCAR-5 ovarian
[35] = system: OVCAR-8 ovarian
[36] = system: PC-3 prostate
[37] = system: RXF 393 renal
[38] = system: SF-268 CNS
[39] = system: SF-295 CNS
[40] = system: SF-539 CNS
[41] = system: SK-MEL-2 melanoma
[42] = system: SK-MEL-28 melanoma
[43] = system: SK-MEL-5 melanoma
[44] = system: SK-OV-3 ovarian
[45] = system: SN12C renal
[46] = system: SNB-19 CNS
[47] = system: SNB-75 CNS
[48] = system: SR leukemia
[49] = system: SW-620 colon
[50] = system: T-47D breast
[51] = system: TK-10 renal
[52] = system: U251 CNS
[53] = system: UACC-257 melanoma
[54] = system: UACC-62 melanoma
[55] = system: UO-31 renal

SMILES: O=c1c2c(c3ccccc3n1-c1ccccc1)NC(=S)NC2c1ccc(Cl)cc1 (stereo not given)
- GI50 [1]: 3.94 µM
- TGI [1]: 24.4 µM
- GI50 [2]: 2.92 µM
- TGI [2]: 12.5 µM
- GI50 [3]: 4.25 µM
- TGI [3]: > 100 µM
- GI50 [4]: 3.92 µM
- TGI [4]: > 100 µM
- GI50 [5]: 3.73 µM
- TGI [5]: 26 µM
- GI50 [6]: 3.16 µM
- TGI [6]: 27.1 µM
- GI50 [7]: 3.79 µM
- TGI [7]: > 100 µM
- GI50 [8]: 8.09 µM
- TGI [8]: 29.1 µM
- GI50 [9]: 3 µM
- TGI [9]: 28.5 µM
- GI50 [10]: 2.91 µM
- TGI [10]: 94.4 µM
- GI50 [11]: 2.2 µM
- TGI [11]: 16.3 µM
- GI50 [12]: 1.96 µM
- TGI [12]: 7.32 µM
- GI50 [13]: 2.1 µM
- TGI [13]: 26.8 µM
- GI50 [14]: 3.6 µM
- TGI [14]: 45 µM
- GI50 [15]: 4.83 µM
- TGI [15]: 56.3 µM
- GI50 [16]: 2.38 µM
- TGI [16]: 19 µM
- GI50 [17]: 1.85 µM
- TGI [17]: > 100 µM
- GI50 [18]: 4.69 µM
- TGI [18]: > 100 µM
- GI50 [19]: 4.57 µM
- TGI [19]: 27.2 µM
- GI50 [20]: 4.04 µM
- TGI [20]: > 100 µM
- GI50 [21]: 1.88 µM
- TGI [21]: 11.7 µM
- GI50 [22]: 2.59 µM
- TGI [22]: 33.4 µM
- GI50 [23]: 3.19 µM
- TGI [23]: 16.1 µM
- GI50 [24]: 4.75 µM
- TGI [24]: > 100 µM
- GI50 [25]: 3.67 µM
- TGI [25]: 37.6 µM
- GI50 [26]: 3.27 µM
- TGI [26]: 31 µM
- GI50 [27]: 4.17 µM
- TGI [27]: > 100 µM
- GI50 [28]: 5.36 µM
- TGI [28]: 37.4 µM
- GI50 [29]: 2.74 µM
- TGI [29]: 50.7 µM
- GI50 [30]: 1.16 µM
- TGI [30]: 6.47 µM
- GI50 [31]: 10.1 µM
- TGI [31]: > 100 µM
- GI50 [32]: 2.86 µM
- TGI [32]: 15.6 µM
- GI50 [33]: 5.66 µM
- TGI [33]: > 100 µM
- GI50 [34]: 8.8 µM
- TGI [34]: 86.4 µM
- GI50 [35]: 4.01 µM
- TGI [35]: > 100 µM
- GI50 [36]: 2.68 µM
- TGI [36]: > 100 µM
- GI50 [37]: 5.34 µM
- TGI [37]: 25.5 µM
- GI50 [38]: 3.28 µM
- TGI [38]: > 100 µM
- GI50 [39]: 1.34 µM
- TGI [39]: 7.16 µM
- GI50 [40]: 2.37 µM
- TGI [40]: 42.6 µM
- GI50 [41]: 3.62 µM
- TGI [41]: 32.4 µM
- GI50 [42]: 5.73 µM
- TGI [42]: 32.5 µM
- GI50 [43]: 2.42 µM
- TGI [43]: 10.5 µM
- GI50 [44]: 9.15 µM
- TGI [44]: 65 µM
- GI50 [45]: 3.83 µM
- TGI [45]: > 100 µM
- GI50 [46]: 4.07 µM
- TGI [46]: > 100 µM
- GI50 [47]: 3.54 µM
- TGI [47]: 22.6 µM
- GI50 [48]: 4.76 µM
- TGI [48]: > 100 µM
- GI50 [49]: 6.97 µM
- TGI [49]: 49.9 µM
- GI50 [50]: 20 µM
- TGI [50]: > 100 µM
- GI50 [51]: 9.62 µM
- TGI [51]: > 100 µM
- GI50 [52]: 2.04 µM
- TGI [52]: 24.8 µM
- GI50 [53]: 5.9 µM
- TGI [53]: > 100 µM
- GI50 [54]: 1.49 µM
- TGI [54]: 10.6 µM
- GI50 [55]: 3.22 µM
- TGI [55]: 42.7 µM
